Data on eight compounds can be found in patent publication US9561230B2, “Aryl-substituted tricyclic sulfonamides as methionyl aminopeptidase 2 modulators” (Zafgen, Inc., priority 2011, dated 2017).

Where only a bound is given, the exact number is not on record here.

The target in this assay is T1, recombinant human MetAP2 (Homo sapiens, UniProt P50579).
T1 construct: made in house; host or cells: Sf9 insect cells
T1 sequence (P50579 whole entry): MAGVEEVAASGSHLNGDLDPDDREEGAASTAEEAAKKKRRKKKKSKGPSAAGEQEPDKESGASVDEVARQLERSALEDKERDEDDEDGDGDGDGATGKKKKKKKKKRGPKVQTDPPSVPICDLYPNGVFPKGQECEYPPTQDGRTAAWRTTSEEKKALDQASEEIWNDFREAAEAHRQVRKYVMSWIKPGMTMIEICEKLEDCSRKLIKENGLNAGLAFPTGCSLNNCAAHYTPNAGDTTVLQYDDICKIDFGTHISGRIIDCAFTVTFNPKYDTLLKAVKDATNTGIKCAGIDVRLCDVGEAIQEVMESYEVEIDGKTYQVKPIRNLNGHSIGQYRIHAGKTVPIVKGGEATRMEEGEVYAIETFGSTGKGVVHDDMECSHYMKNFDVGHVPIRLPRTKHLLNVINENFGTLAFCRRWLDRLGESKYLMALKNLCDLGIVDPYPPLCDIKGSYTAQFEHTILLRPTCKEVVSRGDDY
The assay can be described thus: Inhibition of recombinant human MetAP2 activity (MAS substrate, amino acid oxidase/Amplex red fluorescence). Type of assay: biochemical. The conditions noted are these: manganese enzyme, 0.75 mM MAS substrate, 30 minutes at 25° C., pH 7.5, 1% DMSO; read-out: Activity (IC50 class, MetAP2 inhibition). The method, then: Compounds are tested for their capacity to inhibit recombinant human MetAP2 activity using the following assay.
Human recombinant MetAP2 expressed in Sf9 cells followed by affinity purification and EDTA treatment to remove endogenous active site cation was dialysed against MnCl2 to produce the manganese enzyme used in the assay. The assay was carried out for 30 minutes at 25° C. in 50 mM HEPES buffer containing 100 mM NaCl, pH 7.5 the presence of 0.75 mM Methionine-Alanine-Serine (MAS) substrate and 50 μg/ml amino acid oxidase using a dilution of purified MetAP2 giving>3-fold signal:noise. Cleavage of the substrate by MetAP2 and oxidation of free methionine by amino acid oxidase was detected and quantified using fluorescence generated by Amplex red (10-acetyl-3,7-dihydroxyphenoxazine) in combination with horseradish peroxidase which detects H2O2 released during the oxidation step. The fluorescent signal was detected using a multiwell fluorimeter. Compounds were diluted in DMSO prior to addition to assay buffer, the final DMSO concentration in the assay being 1%.
The IC50 is defined as the concentration at which a given compound achieves 50% inhibition of control. IC50 values are calculated using the XLfit software package (version 2.0.5).
In the case of `CCN(CC)C/C=C\c1cc(F)ccc1S(=O)(=O)Nc1ccc2c(nc3n2CCC3)c1C(=O)O` [6-[2-((Z)-3-Diethylaminoprop-1-enyl)-4-fluorobenzenesulfonylamino]-2,3-dihydro-1H-benzo[d]pyrrolo[1,2-a]imidazole-5-carboxylic acid], the IC50 is > 500 nM.

On to `O=C(O)c1c(NS(=O)(=O)c2ccccc2)ccc2c1cc1n2CCC1` [7-Benzenesulfonylamino-2,3-dihydro-1H-pyrrolo[1,2-a]indole-8-carboxylic acid], for which the IC50 is > 500 nM. Under `CCN(CC)C/C=C\c1cc(F)ccc1S(=O)(=O)Nc1ccc2c(c1C(=O)O)CCC1CCCN21` (centres unmarked) [7-[2-((Z)-3-Diethylaminoprop-1-enyl)-4-fluorobenzenesulfonylamino]-1,2,3,3a,4,5-hexahydropyrrolo[1,2-a]quinoline-6-carboxylic acid] stands 50 to 500 nM; under `CCN(CC)C/C=C\c1cc(F)ccc1S(=O)(=O)Nc1ccc2c(c1C(=O)O)CC1CCCN21` (centres unmarked) [7-[2-((Z)-3-Diethylaminoprop-1-enyl)-4-fluorobenzenesulfonylamino]-2,3,9,9a-tetrahydro-1H-pyrrolo[1,2-a]indole-8-carboxylic acid], 50 to 500 nM; under `CCN(CC)C/C=C\c1cc(F)ccc1S(=O)(=O)Nc1ccc2c(cc3n2CCC3)c1C(=O)O` [7-[2-((Z)-3-Diethylaminoprop-1-enyl)-4-fluorobenzenesulfonylamino]-2,3-dihydro-1H-pyrrolo[1,2-a]indole-8-carboxylic acid], < 50 nM. As for `CCN(CC)C/C=C\c1cc(F)ccc1S(=O)(=O)Nc1ccc2c(c1C(=O)O)OC[C@H]1CCN21` [(R)-6-[2-((Z)-3-Diethylaminoprop-1-enyl)-4-fluorobenzenesulfonylamino]-1,2,2a,3-tetrahydro-4-oxa-8b-azacyclobuta[a]naphthalene-5-carboxylic acid], the figure is > 500 nM. On to `CCN(CC)C/C=C\c1cc(F)ccc1S(=O)(=O)Nc1ccc2c(c1C(=O)O)OC[C@H]1CCCN21` [(R)-7-[2-((Z)-3-Diethylaminoprop-1-enyl)-4-fluorobenzenesulfonyl-amino]-2,3,3a,4-tetrahydro-1H-benzo[b]pyrrolo[1,2-d][1,4]oxazine-6-carboxylic acid], for which the IC50 lay in the range of 50 to 500 nM. As for `CCN(CC)C/C=C\c1cc(F)ccc1S(=O)(=O)Nc1ccc2c(c1C(=O)O)OC[C@@H]1CCCN21` [(S)-7-[2-((Z)-3-Diethylaminoprop-1-enyl)-4-fluorobenzenesulfonyl-amino]-2,3,3a,4-tetrahydro-1H-benzo[b]pyrrolo[1,2-d][1,4]oxazine-6-carboxylic acid], the figure is 50 to 500 nM.
